Assay results from the CheMixHub drug solubility set.

Assay: xn = mol fraction of the nth substance listed, in the solute-free solvent

Nc1cccc2ccncc12 + CCO + O
solubility (g/100 g solution)
Conditions	278.15 K	283.15 K	288.15 K	293.15 K	298.15 K	303.15 K	308.15 K	313.15 K	318.15 K	323.15 K
x2 = 0.04165	0.0455	0.0527	0.0604	0.0712	0.0812	0.0941	0.11	0.128	0.147	0.171
x2 = 0.08908	0.0727	0.084	0.0965	0.113	0.129	0.149	0.174	0.202	0.233	0.271
x2 = 0.1436	0.111	0.129	0.148	0.172	0.197	0.228	0.266	0.308	0.355	0.413
x2 = 0.2068	0.162	0.187	0.215	0.25	0.287	0.332	0.387	0.448	0.517	0.602
x2 = 0.2812	0.211	0.244	0.286	0.338	0.39	0.45	0.52	0.604	0.697	0.809
x2 = 0.3698	0.271	0.315	0.371	0.441	0.51	0.589	0.685	0.794	0.922	1.08
x2 = 0.4772	0.308	0.371	0.437	0.522	0.618	0.722	0.846	0.987	1.14	1.33
x2 = 0.6101	0.364	0.432	0.522	0.614	0.718	0.835	0.975	1.13	1.33	1.56
x2 = 0.7788	0.383	0.459	0.559	0.658	0.77	0.902	1.06	1.25	1.47	1.73

Nc1cccc2ccncc12 + CCCO + O
solubility (g/100 g solution)
Conditions	278.15 K	283.15 K	288.15 K	293.15 K	298.15 K	303.15 K	308.15 K	313.15 K	318.15 K	323.15 K
x2 = 0.03225	0.0813	0.0931	0.106	0.124	0.14	0.162	0.187	0.216	0.247	0.285
x2 = 0.06974	0.175	0.199	0.226	0.263	0.297	0.341	0.393	0.45	0.513	0.589
x2 = 0.1139	0.299	0.34	0.385	0.448	0.506	0.58	0.668	0.764	0.87	0.997
x2 = 0.1666	0.433	0.493	0.56	0.652	0.739	0.848	0.978	1.12	1.27	1.46
x2 = 0.2307	0.521	0.606	0.711	0.84	0.964	1.11	1.28	1.47	1.69	1.94
x2 = 0.3103	0.618	0.731	0.862	1.01	1.16	1.33	1.55	1.78	2.06	2.38
x2 = 0.4117	0.686	0.822	0.992	1.18	1.36	1.59	1.84	2.12	2.44	2.82
x2 = 0.5454	0.774	0.916	1.11	1.32	1.53	1.78	2.08	2.41	2.78	3.21
x2 = 0.7297	0.791	0.959	1.16	1.39	1.64	1.92	2.24	2.6	3.03	3.54

Cc1ccc2cc(Br)ccc2n1 + CN(C)C=O + O
solubility (g/100 g solution)
Conditions	278.15 K	283.15 K	288.15 K	293.15 K	298.15 K	303.15 K	308.15 K	313.15 K	318.15 K	323.15 K
x2 = 0.02666	0.101	0.115	0.132	0.15	0.17	0.192	0.22	0.251	0.284	0.323
x2 = 0.05806	0.422	0.471	0.529	0.591	0.66	0.737	0.832	0.936	1.05	1.18
x2 = 0.09556	0.867	0.964	1.07	1.19	1.32	1.47	1.66	1.86	2.08	2.34
x2 = 0.1412	1.17	1.3	1.45	1.61	1.79	2	2.27	2.55	2.86	3.23
x2 = 0.1978	1.23	1.39	1.57	1.77	1.98	2.23	2.52	2.87	3.25	3.69
x2 = 0.27	1.27	1.43	1.63	1.85	2.11	2.39	2.74	3.13	3.57	4.1
x2 = 0.3652	1.38	1.58	1.8	2.04	2.31	2.62	2.99	3.45	3.97	4.61
x2 = 0.4965	1.52	1.77	2.05	2.31	2.62	3.01	3.5	4.08	4.7	5.46
x2 = 0.6893	1.67	1.91	2.2	2.61	2.99	3.44	3.98	4.63	5.36	6.25

Nc1cccc2ccncc12 + CO + O
solubility (g/100 g solution)
Conditions	278.15 K	283.15 K	288.15 K	293.15 K	298.15 K	303.15 K	308.15 K	313.15 K	318.15 K	323.15 K
x2 = 0.05881	0.0271	0.0315	0.0363	0.0431	0.0495	0.0576	0.0677	0.079	0.0916	0.107
x2 = 0.1233	0.0301	0.035	0.0406	0.0481	0.0556	0.0648	0.0763	0.0893	0.104	0.122
x2 = 0.1942	0.0368	0.0428	0.0497	0.0588	0.0681	0.0794	0.0937	0.11	0.128	0.15
x2 = 0.2727	0.0479	0.0557	0.0648	0.0762	0.0886	0.103	0.122	0.142	0.167	0.196
x2 = 0.3599	0.0644	0.0748	0.087	0.102	0.119	0.138	0.163	0.19	0.223	0.262
x2 = 0.4576	0.0845	0.0982	0.115	0.134	0.157	0.183	0.216	0.252	0.296	0.349
x2 = 0.5675	0.111	0.128	0.15	0.175	0.205	0.238	0.282	0.329	0.387	0.455
x2 = 0.6923	0.131	0.153	0.179	0.209	0.248	0.289	0.343	0.4	0.473	0.559
x2 = 0.835	0.144	0.167	0.201	0.239	0.286	0.34	0.399	0.461	0.542	0.644

Cc1ccc2cc(Br)ccc2n1 + CO + O
solubility (g/100 g solution)
Conditions	278.15 K	283.15 K	288.15 K	293.15 K	298.15 K	303.15 K	308.15 K	313.15 K	318.15 K	323.15 K
x2 = 0.05881	0.0126	0.0148	0.0176	0.0206	0.0242	0.0281	0.0331	0.0386	0.045	0.0524
x2 = 0.1233	0.0194	0.0228	0.0268	0.0314	0.0369	0.0428	0.0502	0.0586	0.0682	0.0793
x2 = 0.1942	0.0298	0.0349	0.0409	0.0477	0.056	0.0651	0.0761	0.0886	0.103	0.12
x2 = 0.2727	0.0444	0.052	0.0607	0.0706	0.0828	0.0963	0.112	0.131	0.152	0.177
x2 = 0.3599	0.0588	0.0705	0.0835	0.0981	0.115	0.135	0.156	0.18	0.21	0.245
x2 = 0.4576	0.0792	0.095	0.112	0.133	0.155	0.18	0.21	0.245	0.283	0.331
x2 = 0.5675	0.097	0.117	0.14	0.166	0.195	0.228	0.266	0.311	0.361	0.421
x2 = 0.6923	0.118	0.142	0.169	0.199	0.233	0.272	0.318	0.374	0.436	0.511
x2 = 0.835	0.133	0.159	0.19	0.227	0.27	0.317	0.368	0.429	0.504	0.593

CN1CCC(N(Cc2cccs2)c2ccccc2)CC1 + CCO + O
solubility (g/100 g solution)
Conditions	278.15 K	283.15 K	288.15 K	293.15 K	298.15 K	303.15 K	308.15 K	313.15 K	318.15 K	323.15 K
x2 = 0.04165	0.102	0.109	0.117	0.128	0.141	0.156	0.171	0.187	0.206	0.228
x2 = 0.08908	0.202	0.215	0.23	0.25	0.274	0.301	0.33	0.358	0.393	0.431
x2 = 0.1436	0.339	0.36	0.385	0.418	0.457	0.501	0.546	0.592	0.646	0.707
x2 = 0.2068	0.502	0.533	0.571	0.62	0.679	0.743	0.807	0.874	0.953	1.04
x2 = 0.2812	0.667	0.713	0.764	0.826	0.904	0.984	1.07	1.16	1.26	1.39
x2 = 0.3698	0.851	0.906	0.981	1.07	1.18	1.29	1.4	1.51	1.65	1.8
x2 = 0.4772	1.02	1.08	1.18	1.29	1.42	1.56	1.69	1.84	2.01	2.19
x2 = 0.6101	1.16	1.24	1.36	1.5	1.65	1.81	1.97	2.15	2.35	2.56
x2 = 0.7788	1.22	1.32	1.47	1.64	1.81	2	2.19	2.4	2.63	2.87
